Laboratory results from ChEMBL document CHEMBL1201862, “PubChem BioAssay data set” (2004).
“And” between values parts separate entries of the source, which are not always exact repeats. Equal entries are not always repeated.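 1) Cells in 96-well plates. 2) Compound, 48 h, 5 concentrations. 3) Linear interpolation between surrounding doses. 4) Unreached endpoint = highest concentration. GI50 is the concentration that inhibits growth by half.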 The source made the active and inactive calls. Cut-off read from the data, not from the text of the source: active = GI50 up to about 1.1 µM and inactive = higher.

Columns and labels:
Assay in all cases: NCI-60 cell line screen, 48 h
RXF 393 = system: RXF 393
SF-295 = system: SF-295
U-251 = system: U-251
M14 = system: M14
COLO 205 = system: COLO 205
Hs-578T = system: Hs-578T
SR = system: SR
786-0 = system: 786-0
HOP-92 = system: HOP-92
SK-MEL-2 = system: SK-MEL-2
DU-145 = system: DU-145
CAKI-1 = system: CAKI-1
SNB-19 = system: SNB-19
OVCAR-3 = system: OVCAR-3
SNB-75 = system: SNB-75
SK-MEL-5 = system: SK-MEL-5
IGROV-1 = system: IGROV-1
BT-549 = system: BT-549
KM12 = system: KM12

Structure (SMILES)	GI50 (RXF 393)	GI50 (SF-295)	GI50 (U-251)	GI50 (M14)	GI50 (COLO 205)	GI50 (Hs-578T)	GI50 (SR)	GI50 (786-0)	GI50 (HOP-92)	GI50 (SK-MEL-2)	GI50 (DU-145)	GI50 (CAKI-1)	GI50 (SNB-19)	GI50 (OVCAR-3)	GI50 (SNB-75)	GI50 (SK-MEL-5)	GI50 (IGROV-1)	GI50 (BT-549)	GI50 (KM12)
C=C1c2nc3ccccc3n2C=C(c2ccc(C)cc2)N1c1ccc(OC)cc1	> 56.9 µM (inactive)	33.7 µM (inactive)	97.7 µM (inactive)	58.2 µM (inactive)	31.9 µM (inactive)	> 77.4 µM (inactive)	3.22 µM (inactive)	> 100 µM (inactive)	> 48.2 µM (inactive)	60.7 µM (inactive)	> 100 µM (inactive)	36.1 µM (inactive)	> 100 µM (inactive)	46.8 µM (inactive)	> 80 µM (inactive)	13.7 µM (inactive)	> 83 µM (inactive)	> 82.8 µM (inactive)	5.56 µM (inactive)
CN1CCc2cc(N)cc3c2C1Cc1ccc(O)c(O)c1-3 (stereo unspecified)	55.7 µM (inactive)	39.8 µM (inactive)	39.5 µM (inactive)	34 µM (inactive)	37.9 µM (inactive)	53.5 µM (inactive)	28.4 µM (inactive)	33 µM (inactive)	51.2 µM (inactive)	40.9 µM (inactive)	56.6 µM (inactive)	37.2 µM (inactive)	46.6 µM (inactive)	27.4 µM (inactive)	40.9 µM (inactive)	20.4 µM (inactive)	33.7 µM (inactive)	58.2 µM (inactive)	33.4 µM (inactive)
Fc1cc(-c2cc(-c3ccc4c(c3)OCO4)n[nH]2)c(Cl)cc1Cl	1.89 µM (inactive)	3.05 µM (inactive)	1.91 µM (inactive)	4.75 µM (inactive)	3.42 µM (inactive)	3.99 µM (inactive)	7.29 µM (inactive)	1.84 µM (inactive)	2.26 µM (inactive)	15.8 µM (inactive)	3.34 µM (inactive)	3.18 µM (inactive)	3.5 µM (inactive)	2.21 µM (inactive)	1.8 µM (inactive)	6.38 µM (inactive)	1.71 µM (inactive)	6.59 µM (inactive)	3.01 µM (inactive)
COc1ccc(/C=C2/N/C(=N\N=C/C(O)C(O)C(O)C(O)CO)NC2=O)cc1 (stereo unspecified)	> 100 µM (inactive)	> 100 µM (inactive)	> 100 µM (inactive)	> 100 µM (inactive)	> 100 µM (inactive)	> 100 µM (inactive)	> 100 µM (inactive)	> 100 µM (inactive)	> 100 µM (inactive)	> 100 µM (inactive)	> 100 µM (inactive)	> 100 µM (inactive)	> 100 µM (inactive)	> 100 µM (inactive)	> 100 µM (inactive)	> 100 µM (inactive)	> 100 µM (inactive)	82.4 µM (inactive) and 65.6 µM (inactive)	> 100 µM (inactive)
COc1ccc(/N=C(Nc2ccc(OC)cc2)/C(=N/c2ccc(OC)cc2)Nc2ccc(OC)cc2)cc1	> 100 µM (inactive)	> 100 µM (inactive)	> 100 µM (inactive)	> 100 µM (inactive)	> 100 µM (inactive)	37.1 µM (inactive)	48.2 µM (inactive)	> 100 µM (inactive)	> 100 µM (inactive)	> 100 µM (inactive)	> 100 µM (inactive)	> 100 µM (inactive)	> 100 µM (inactive)	> 100 µM (inactive)	1.95 µM (inactive)	> 100 µM (inactive)	> 100 µM (inactive)	> 100 µM (inactive)	14.7 µM (inactive)
C[N+]1=C2[B-](C(C)(C)C)=[N+](C(C)(C)C)[B-]2(C(C)(C)C)[N+](C)=C2[B-](C(C)(C)C)=[N+](C(C)(C)C)[B-]21C(C)(C)C (stereo unspecified)	> 100 µM (inactive)	61.9 µM (inactive)	> 100 µM (inactive)	> 100 µM (inactive)	> 100 µM (inactive)	> 100 µM (inactive)	> 100 µM (inactive)	> 100 µM (inactive)	> 100 µM (inactive)	> 100 µM (inactive)	> 100 µM (inactive)	> 100 µM (inactive)	> 100 µM (inactive)	> 100 µM (inactive)	> 100 µM (inactive)	> 100 µM (inactive)	> 100 µM (inactive)	> 100 µM (inactive)	> 100 µM (inactive)
CC(C)(C)OC(=O)N(CCCCNC(=O)c1ccccc1)CCCNC(=O)c1ccccc1	> 100 µM (inactive)	> 100 µM (inactive)	> 100 µM (inactive)	> 100 µM (inactive)	> 100 µM (inactive)	> 100 µM (inactive)	49.3 µM (inactive)	> 100 µM (inactive)	> 100 µM (inactive)	> 100 µM (inactive)	> 100 µM (inactive)	> 100 µM (inactive)	> 100 µM (inactive)	> 100 µM (inactive)	> 100 µM (inactive)	> 100 µM (inactive)	> 100 µM (inactive)	> 100 µM (inactive)	> 100 µM (inactive)
N#CCCC(C=O)(CCC#N)CCC#N	> 100 µM (inactive)	> 100 µM (inactive)	> 100 µM (inactive)	> 100 µM (inactive)	> 100 µM (inactive)	> 100 µM (inactive)	> 100 µM (inactive)	> 100 µM (inactive)	> 100 µM (inactive)	> 100 µM (inactive)	> 100 µM (inactive)	> 100 µM (inactive)	> 100 µM (inactive)	> 100 µM (inactive)	> 100 µM (inactive)	> 100 µM (inactive)	> 100 µM (inactive)	> 100 µM (inactive)	> 100 µM (inactive)
BrCC[P+](c1ccccc1)(c1ccccc1)c1ccccc1	2.43 µM (inactive)	30.8 µM (inactive)	3.87 µM (inactive)	4.15 µM (inactive)	2.87 µM (inactive)	20.4 µM (inactive)	4.93 µM (inactive)	2.75 µM (inactive)	3.57 µM (inactive)	5.26 µM (inactive)	6.49 µM (inactive)	4.37 µM (inactive)	21.4 µM (inactive)	2.59 µM (inactive)	3.23 µM (inactive)	8.11 µM (inactive)	13.3 µM (inactive)	14.9 µM (inactive)	4.8 µM (inactive)
CC(=O)Nc1nc(C)c(S(=O)(=O)NC(=O)NC2NC(=O)NC2=O)s1 (stereo unspecified)	> 100 µM (inactive)	> 100 µM (inactive)	> 100 µM (inactive)	> 100 µM (inactive)	> 100 µM (inactive)	> 100 µM (inactive)	> 100 µM (inactive)	> 100 µM (inactive)	> 100 µM (inactive)	> 100 µM (inactive)	> 100 µM (inactive)	> 100 µM (inactive)	> 100 µM (inactive)	> 100 µM (inactive)	> 100 µM (inactive)	> 100 µM (inactive)	> 100 µM (inactive)	> 100 µM (inactive)	> 100 µM (inactive)
Cc1nn(C(=O)c2ccc(Cl)cc2)c2c1C(c1ccccc1[N+](=O)[O-])SC(=N)N2 (stereo unspecified)	0.569 µM (active)	> 10 µM (inactive)	> 10 µM (inactive)	> 10 µM (inactive)	> 10 µM (inactive)	> 10 µM (inactive)	> 10 µM (inactive)	> 10 µM (inactive)	> 10 µM (inactive)	> 10 µM (inactive)	> 10 µM (inactive)	> 10 µM (inactive)	> 10 µM (inactive)	> 10 µM (inactive)	> 10 µM (inactive)	> 10 µM (inactive)	> 10 µM (inactive)	> 10 µM (inactive)	> 10 µM (inactive)
CSc1ccc(/C=C2\N=C(c3ccccc3)N(c3nc4cc(C)c(C)cc4s3)C2=O)cc1	25 µM (inactive)	34.1 µM (inactive)	19.2 µM (inactive)	26.4 µM (inactive)	35.2 µM (inactive)	28.4 µM (inactive)	25 µM (inactive)	21.9 µM (inactive)	13.5 µM (inactive)	16 µM (inactive)	49.7 µM (inactive)	53 µM (inactive)	30.2 µM (inactive)	22.8 µM (inactive)	28.8 µM (inactive)	21.4 µM (inactive)	15.8 µM (inactive)	28.2 µM (inactive)	27.4 µM (inactive)
COC1=CC(=O)C2=C(C1=O)[C@H]1CC[C@]3(C)[C@@H](OC(C)=O)CC[C@H]3[C@@H]1CC2	61.2 µM (inactive)	92.3 µM (inactive)	30.3 µM (inactive)	> 100 µM (inactive)	44.2 µM (inactive)	38.3 µM (inactive)	37.4 µM (inactive)	55.6 µM (inactive)	7.93 µM (inactive)	37.5 µM (inactive)	67.8 µM (inactive)	49 µM (inactive)	> 100 µM (inactive)	> 100 µM (inactive)	> 100 µM (inactive)	21.4 µM (inactive)	25.2 µM (inactive)	> 100 µM (inactive)	60.3 µM (inactive)
CCCCCCCCC/C=C1\CC(CO)(COC(=O)C2CCCCC2)OC1=O (stereo unspecified)	20.2 µM (inactive)	15.9 µM (inactive)	19.7 µM (inactive)	18.6 µM (inactive)	13.6 µM (inactive)	16.4 µM (inactive)	32.4 µM (inactive)	14.9 µM (inactive)	8.17 µM (inactive)	18.2 µM (inactive)	7.6 µM (inactive)	22.9 µM (inactive)	21.8 µM (inactive)	18.6 µM (inactive)	15.8 µM (inactive)	11.8 µM (inactive)	20.2 µM (inactive)	18.4 µM (inactive)	20.4 µM (inactive)
